According to article PMC8080777, “Discovery, optimization, and evaluation of non-bile acid FXR/TGR5 dual agonists” (Scientific Reports, 2021):

Legend:
[1] = Pharmacokinetics in rats; assay type: in vivo, Sprague-Dawley rats; conditions: for Cmax / half-life / CLtot: n=3; for AUC: n=3, AUC0-24h; for Plasma exposure (in words): oral dose of 3 mg/kg; for CLtot: p.o.
Experimental: S3. Supplementary Table S1. Pharmacokinetic properties of 20p and 20q after oral administration […]
Determination of Drug Pharmacokinetics in Sprague-Dawley rats.
Blood samples (about 200 µl) were obtained from the jugular vein at 0.083 (intravenous only), 0.25, 0.5, 1, 2, 4, 8, and 24 hours from 16-hour fasted rats. Plasma was obtained from the blood samples by centrifugation at 3000 rpm for 10 minutes at 4 °C. Plasma were deproteinated and centrifuged at 3000 rpm for 10 minutes at 4 °C. Drug concentrations were measured using LC - MSMS (Triple Quad 4500; […]). Area under the plasma concentration -time curve at 0–24h (AUC0–24h) were calculated using the trapezoidal rule. pharmacokinetic parameters were calculated using the Phoenix WinNonlin 6.4 software (Certara […]

[2] = system: SHP mRNA; experiment: In vivo FXR assay: SHP mRNA in mice liver by real-time PCR; conditions: CDAHFD-fed C57BL/6J mice, single oral dose 100, 30 and 10 mg/kg, liver four hours after administration
Experimental: (§1) Test compounds were orally administered to 7-week old male C57BL/6J mice (Nippon Charles River Co., Ltd., Yokohama City, Kanagawa, Japan), that were administered CDAHFD (#A06071302, Research Diets, 20 Jules Lane, New Brunswick, NJ, USA) consisting 60 kcal% fat and 0.1% methionine by weight for 7 days. After four hours of administration, the liver was removed, and total RNA was extracted using a Pure Link RNA Mini Kit (Invitrogen, Thermo Fisher Scientific K. K., Minato-ku, Tokyo, Japan). The concentration of total RNA was measured using Micro Sample Spectrophotometer (SimpliNano, GE Healthcare UK Ltd, Amersham Place Little Chalfont Buckinghamshire, HP7 9NA UK), and cDNA was synthesized using ReverTra Ace qPCR RT Master Mix (Toyobo Co., Ltd., Osaka City, Osaka, Japan). Real-time PCR was performed using a CFX96 Touch Real-Time PCR Analysis System (CFX Manager, Bio-Rad, 1000 Alfred Nobel Drive, Hercules, CA, USA), and the mRNA expression levels of SHP and CYP7A1, the target genes of FXR, were measured using the intercalator method.
(§2) S4. In vitro, in vivo assay, and selectvity.
(§3) To directly evaluate the in vitro agonist activity towards FXR, test compounds were evaluated in CHO cells transfected with FXR responsive luciferase reporter (Nuclear Receptor & In Vitro Toxicology Solutions, Indigo Biosciences, State College, PA, USA). […]

[3] = system: CYP7A1; experiment: In vivo FXR assay: CYP7A1 in mice liver by real-time PCR; conditions: CDAHFD-fed C57BL/6J mice, single oral dose 30 and 10 mg/kg, liver four hours after administration
Experimental: as §1, §2, §3

[4] = Sprague-Dawley, rat, plasma, po, 3mg/kg
[5] = Sprague-Dawley, rat, plasma, iv, 3mg/kg

Structure (SMILES)	Cmax [1, 4] [ng/mL]	half-life [1, 4] [h]	AUC [1, 4] [ng·h/mL]	Plasma exposure (in words) [1]	CLtot ([1]; 3mg/kg) [mL/min/kg]	Induction of SHP mRNA in the liver [2]	Repression of CYP7A1 in the liver [3]	Cmax [1, 5] [ng/mL]	half-life [1, 5] [h]	AUC [1, 5] [ng·h/mL]	clearance ([1]; Sprague-Dawley, rat, plasma, iv, 3mg/kg, n=3, read-out: CLtot (converted)) [mL/min/kg]
COc1cc(Cl)cc(N(CC23CCC(c4ccc(OC)c(C#N)c4)(CC2)CC3)C(=O)c2ccncc2C)c1 [Compound 20p]	50.3	1.45	121	rather low plasma exposure	426.93	dose-dependently induced SHP mRNA in the liver	decreased CYP7A1 in the liver				
COc1ccc(C23CCC(CN(C(=O)c4ccncc4C)c4cc(Cl)cc(Cl)c4)(CC2)CC3)cc1C#N [Compound 20q]	3.2	4.52	11	rather low plasma exposure	2652.33	dose-dependently induced SHP mRNA in the liver	decreased CYP7A1 in the liver	2580	5.04	1460	34.2
